Values quoted from earlier work, collected in patent US9974804B1, “Strontium-based composition, product, and method of using the same to control progression of osteoarthritis osteoporosis and tooth decay” (priority 2017, dated 2018).

Assays:
[1] = supplemented in the human diet
[2] = osteoporosis; daily doses of 6.4 grams for months to years
[3] = compared to placebo group
[4] = three-year daily use, compared to the control group

For `[Sr+2]` [strontium], the “time after which fifty percent of bone strontium disappears” value (after strontium supplementation is discontinued) is given as 10 weeks and the “daily renal clearance relative to that of calcium” value (renal tubule excretion) is given as “about three”.

For `O=C([O-])[O-].[Sr+2]` [strontium carbonate], the tolerability / toxicity [1] is listed as “well tolerated without reported toxicity”.

For `CC(O)C(=O)[O-].CC(O)C(=O)[O-].[Sr+2]` (stereo not drawn) [strontium lactate], the marked subjective improvement [2] is given as 84%.

In the case of `N#Cc1c(N(CC(=O)[O-])CC(=O)[O-])sc(C(=O)[O-])c1CC(=O)[O-].[Sr+2].[Sr+2]` [strontium ranelate], the “increase in osteoblast activity parameters” value [3] is given as roughly 10%, the “trabecular and cortical bone thickness” value [3] is given as 14-18% and the “reduction in hip fracture” value [4] is given as 36%. The “reduction in nonvertebral fracture” value [4] was 19% and the “reduction in vertebral fracture” value [4] was roughly 49%.
